Data set [1] deals with T1, recombinant human transglutaminase 2 (Homo sapiens, UniProt P21980).
T1 construct: purchased Zedira T022
T1 sequence (P21980 1-687): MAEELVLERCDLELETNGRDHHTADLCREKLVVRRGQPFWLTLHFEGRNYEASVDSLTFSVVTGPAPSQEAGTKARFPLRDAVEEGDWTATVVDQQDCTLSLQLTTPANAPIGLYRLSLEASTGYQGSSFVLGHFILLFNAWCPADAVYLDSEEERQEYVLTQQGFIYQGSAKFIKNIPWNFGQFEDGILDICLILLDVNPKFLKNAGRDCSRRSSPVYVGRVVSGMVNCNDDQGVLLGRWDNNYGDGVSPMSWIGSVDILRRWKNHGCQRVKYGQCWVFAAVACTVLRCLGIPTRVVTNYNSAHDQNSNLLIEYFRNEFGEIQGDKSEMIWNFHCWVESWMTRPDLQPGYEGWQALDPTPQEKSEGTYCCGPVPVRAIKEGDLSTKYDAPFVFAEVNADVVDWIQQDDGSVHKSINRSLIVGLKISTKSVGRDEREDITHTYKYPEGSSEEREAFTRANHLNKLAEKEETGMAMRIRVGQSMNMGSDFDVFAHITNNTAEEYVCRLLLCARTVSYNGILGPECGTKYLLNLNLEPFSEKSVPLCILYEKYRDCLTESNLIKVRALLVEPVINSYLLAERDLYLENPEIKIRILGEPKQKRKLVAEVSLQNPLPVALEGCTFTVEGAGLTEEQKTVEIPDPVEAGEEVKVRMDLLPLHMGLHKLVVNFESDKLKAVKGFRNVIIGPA
Put plainly: Transglutaminase assay (dansylcadaverine incorporation into dimethylcasein, DCC-assay). Conditions: recombinant human TG2 10 nM, dansylcadaverine/dimethylcasein, 37° C. It is filed as biochemical. The gist of the method: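 IC50 derived from fluorescence slope between 20 and 30 min (λex 330 nm, λem 500 nm, 37 °C), expressed relative to a 2% DMSO control. Reaction: 10 nM recombinant human TG2, 4 μM dimethylcasein, 16.7 μM dansylcadaverine, 10 mM CaCl2 and glutathione, pH 8.0.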

Data set [2] can be described thus: Log D shake flask method (octanol / PBS pH 7.4, HPLC). The following applies: octanol/phosphate-buffered saline (PBS); octanol / PBS pH 7.4, shake flask. It is filed as physicochemical. The method, then:
In order to classify the inventive compounds according to their lipophilicity, Log D values (distribution coefficient) were determined by means of the well-established shake flask method, measuring the partition of a compound between an octanol and phosphate-buffered saline (PBS, pH 7.4) by HPLC.

Data set [3] can be described thus: Caco-2 permeability assay (CacoReady kit). The following applies: human. The format is in vitro ADME. The gist of the method: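 Intestinal permeability modelled with kit-supplied Caco-2 barriers, run as the maker specifies; each compound reported as Papp.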

Usually IC50 stands for the midpoint of a concentration-inhibition curve. The logD is the decadic logarithm of the distribution of all forms, ionised or not, between an organic phase and buffer at a given pH. Read a low logD as a more hydrophilic compound. As usually defined, the Papp is the rate of passage across a membrane or cell layer, normalised by area and donor concentration. Low readings indicate poor permeation, high ones ready permeation. `Cc1c(C(=O)N[C@@H](CC/C=C/C(=O)N(C)C)C(=O)Nc2cccn(CC(=O)NC3C4CC5CC(C4)CC3C5)c2=O)oc2ccccc12` (stereo partly drawn) [III-75, (S,E)-N^7-(1-(2-(2-adamantylamino)-2-oxoethyl)-2-oxo-1,2-dihydropyridin-3-yl)-N^1,N^1-dimethyl-6-(3-methylbenzofuran-2-carboxamido)hept-2-enediamide]: the IC50 in data set [1] lay in the range of 0.025 to 0.25 µM. Also, in data set [2], the logD was 3 to 5. The compound also showed a Papp in data set [3] of 1 to 10 ×10⁻⁶ cm/s.

Turning to `COC(=O)/C=C/CC[C@H](NC(=O)c1ccn(C)n1)C(=O)Nc1cccn(CC(=O)NC2C3CC4CC(C3)CC2C4)c1=O` (stereo partly drawn) [III-129, (S,E)-methyl 7-(1-(2-(2-adamantylamino)-2-oxoethyl)-2-oxo-1,2-dihydropyridin-3-ylamino)-6-(1-methyl-1H-pyrazole-3-carboxamido)-7-oxohept-2-enoate], the IC50 in data set [1] was 0.025 to 0.25 µM. For the same compound, in data set [2], the logD was 1 to 3. In data set [3], this compound returned a Papp below 1 ×10⁻⁶ cm/s.

In the case of `COC(=O)/C=C/CC[C@H](NC(=O)c1cc(Cl)c(Cl)s1)C(=O)Nc1cccn(CC(=O)NC2C3CC4CC(C3)CC2C4)c1=O` (stereo partly drawn) [III-20, (S,E)-methyl 6-(4,5-dichlorothiophene-2-carboxamido)-7-(1-(2-(2-adamantylamino)-2-oxoethyl)-2-oxo-1,2-dihydropyridin-3-ylamino)-7-oxohept-2-enoate], in data set [1], the IC50 was below 0.025 µM. For the same compound, in data set [2], the logD is 3 to 5. This compound also displayed a Papp in data set [3] of 1 to 10 ×10⁻⁶ cm/s.

As to `COC(=O)/C=C/CC[C@H](NC(=O)c1oc2ccccc2c1C)C(=O)Nc1cccn(CC(=O)N[C@@H]2C[C@@H]3CC[C@H]2C3)c1=O` [III-59, (S,E)-methyl 7-(1-(2-((1 S,2R,4R)-bicyclo[2.2.1]heptan-2-ylamino)-2-oxoethyl)-2-oxo-1,2-dihydropyridin-3-ylamino)-6-(3-methylbenzofuran-2-carboxamido)-7-oxohept-2-enoate], the IC50 in data set [1] is below 0.025 µM. Further, the logD in data set [2] is 3 to 5. Further, in data set [3], the Papp lay within 1 to 10 ×10⁻⁶ cm/s.

With `COC(=O)/C=C/CC[C@H](NC(=O)c1cnc(C(C)C)o1)C(=O)Nc1cccn(CC(=O)NC23CCC(C2)C3)c1=O` [III-134, (S,E)-methyl 7-(1-(2-(bicyclo[2.1.1]hexan-1-ylamino)-2-oxoethyl)-2-oxo-1,2-dihydropyridin-3-ylamino)-6-(2-isopropyloxazole-5-carboxamido)-7-oxohept-2-enoate], the IC50 in data set [1] fell in the range of 0.025 to 0.25 µM. The compound further returned a logD in data set [2] of 1 to 3. Also, the Papp in data set [3] lay in the range of 1 to 10 ×10⁻⁶ cm/s.

As to `COC(=O)/C=C/CC[C@H](NC(=O)c1oc2ccccc2c1C)C(=O)Nc1cccn(CC(=O)NC2C3CC4CC(C3)CC2C4)c1=O` (stereo partly drawn) [III-2, (S,E)-methyl 7-(1-(2-(2-adamantylamino)-2-oxoethyl)-2-oxo-1,2-dihydropyridin-3-ylamino)-6-(3-methylbenzofuran-2-carboxamido)-7-oxohept-2-enoate], in data set [1], the IC50 was below 0.025 µM. This compound registered a logD in data set [2] of 3 to 5. In data set [3], this compound displayed a Papp of 1 to 10 ×10⁻⁶ cm/s.

With `COC(=O)/C=C/CC[C@H](NC(=O)c1oc2ccccc2c1C)C(=O)Nc1cccn(CC(=O)NC23CC4CC5C2C[C@@H]2C[C@H]5C(C4)[C@H]3C2)c1=O` [III-73, (S,E)-methyl 7-(1-(2-(diamantane-1-amino)-2-oxoethyl)-2-oxo-1,2-dihydropyridin-3-ylamino)-6-(3-methylbenzofuran-2-carboxamido)-7-oxohept-2-enoate], the IC50 in data set [1] was below 0.025 µM. Also, in data set [2], the logD lay in the range of 3 to 5. For the same compound, the Papp in data set [3] is 1 to 10 ×10⁻⁶ cm/s.

On to `COC(=O)/C=C/CC[C@H](NC(=O)c1oc2ccccc2c1C)C(=O)Nc1cccn(CC(=O)NC2C3CC4CC2CC(Br)(C4)C3)c1=O` (stereo partly drawn) [III-41, (S,E)-methyl 7-(1-(2-(5-bromoadamantan-2-amino)-2-oxoethyl)-2-oxo-1,2-dihydropyridin-3-ylamino)-6-(3-methylbenzofuran-2-carboxamido)-7-oxohept-2-enoate], for which the IC50 in data set [1] is below 0.025 µM. In data set [2], this compound displayed a logD of 3 to 5. Also, the Papp in data set [3] lay within 1 to 10 ×10⁻⁶ cm/s.

Turning to `COC(=O)/C=C/CC[C@H](NC(=O)c1cc2ccc(N(C)C)cc2o1)C(=O)Nc1cccn(CC(=O)NC23CC(C2)C3)c1=O` [III-161, (S,E)-methyl 7-(1-(2-(bicyclo[1.1.1]pentan-1-ylamino)-2-oxoethyl)-2-oxo-1,2-dihydropyridin-3-ylamino)-6-(6-(dimethylamino)benzofuran-2-carboxamido)-7-oxohept-2-enoate], the IC50 in data set [1] lay within 0.25 to 1.5 µM. In addition, the logD in data set [2] is 1 to 3. In data set [3], this compound returned a Papp below 1 ×10⁻⁶ cm/s.

Consider `COC(=O)/C=C/CC[C@H](NC(=O)c1oc2ccccc2c1C)C(=O)Nc1cccn(CC(=O)NC2(C(=O)OC)C3CC4CC(C3)CC2C4)c1=O` (stereo partly drawn) [III-44, (S,E)-methyl 7-(1-(2-(2-methyladamantane-2-carboxylate-2-amino)-2-oxoethyl)-2-oxo-1,2-dihydropyridin-3-ylamino)-6-(3-methylbenzofuran-2-carboxamido)-7-oxohept-2-enoate], for which the IC50 in data set [1] was in the range of 0.025 to 0.25 µM. The compound also gave a logD in data set [2] of 3 to 5. For the same compound, the Papp in data set [3] was below 1 ×10⁻⁶ cm/s.

Turning to `CC(C)OC(=O)/C=C/CC[C@H](NC(=O)c1cn[nH]n1)C(=O)Nc1cccn(CC(=O)NC23CCC(C2)C3)c1=O` [III-158, (S,E)-isopropyl 7-(1-(2-(bicyclo[2.1.1]hexan-1-ylamino)-2-oxoethyl)-2-oxo-1,2-dihydropyridin-3-ylamino)-7-oxo-6-(2H-1,2,3-triazole-4-carboxamido)hept-2-enoate], the IC50 in data set [1] fell in the range of 0.25 to 1.5 µM. The compound further had a logD in data set [2] below 1. Besides, the Papp in data set [3] is below 1 ×10⁻⁶ cm/s.

As to `COC(=O)/C=C/CC[C@H](NC(=O)c1oc2ccccc2c1C)C(=O)Nc1cccn(CC(=O)N(C)C2C3CC4CC(C3)CC2C4)c1=O` (stereo partly drawn) [III-37, (S,E)-methyl 7-(1-(2-(2-adamantyl(methyl)amino)-2-oxoethyl)-2-oxo-1,2-dihydropyridin-3-ylamino)-6-(3-methylbenzofuran-2-carboxamido)-7-oxohept-2-enoate], the IC50 in data set [1] lay within 0.025 to 0.25 µM. The compound also returned a logD in data set [2] of 3 to 5. This compound also returned a Papp in data set [3] of 1 to 10 ×10⁻⁶ cm/s.

For the compound `COC(=O)/C=C/CC[C@H](NC(=O)C1Cc2ccccc2C1)C(=O)Nc1cccn(CC(=O)NC2C3CC4CC(C3)CC2C4)c1=O` (stereo partly drawn) [III-12, (S,E)-methyl 6-(2,3-dihydro-1H-indene-2-carboxamido)-7-(1-(2-(2-adamantylamino)-2-oxoethyl)-2-oxo-1,2-dihydropyridin-3-ylamino)-7-oxohept-2-enoate], the IC50 in data set [1] is below 0.025 µM. The logD in data set [2] is 3 to 5. In data set [3], this compound gave a Papp of 1 to 10 ×10⁻⁶ cm/s.

Turning to `C=CCNC(=O)/C=C/CC[C@H](NC(=O)c1nccc2cnccc12)C(=O)Nc1cccn(CC(=O)NC23CC(C2)C3)c1=O` [III-151, (S,E)-N1-allyl-N7-(1-(2-(bicyclo[1.1.1]pentan-1-ylamino)-2-oxoethyl)-2-oxo-1,2-dihydropyridin-3-yl)-6-(2,6-naphthyridine-1-carboxamido)hept-2-enediamide], in data set [1], the IC50 fell in the range of 0.25 to 1.5 µM. This compound also gave a logD in data set [2] below 1. In data set [3], this compound gave a Papp below 1 ×10⁻⁶ cm/s.

For `COC(=O)/C=C/CC[C@H](NC(=O)c1c[nH]c(C(N)=O)c1)C(=O)Nc1cccn(CC(=O)NC23CC(C2)C3)c1=O` [III-163, (S,E)-methyl 7-(1-(2-(bicyclo[1.1.1]pentan-1-ylamino)-2-oxoethyl)-2-oxo-1,2-dihydropyridin-3-ylamino)-6-(5-carbamoyl-1H-pyrrole-3-carboxamido)-7-oxohept-2-enoate], the IC50 in data set [1] was 0.25 to 1.5 µM. In data set [2], the logD is below 1. Moreover, the Papp in data set [3] is below 1 ×10⁻⁶ cm/s.

Take `COC(=O)/C=C/CC[C@H](NC(=O)c1oc2ccccc2c1C)C(=O)Nc1cccn(CC(=O)NC23CCCC4CC(CCC42)C3)c1=O` (stereo partly drawn) [III-72, (S,E)-methyl 7-(1-(2-(4-homoisotwistane-3-amino)-2-oxoethyl)-2-oxo-1,2-dihydropyridin-3-ylamino)-6-(3-methylbenzofuran-2-carboxamido)-7-oxohept-2-enoate]: the IC50 in data set [1] lay within 0.025 to 0.25 µM. Also, the logD in data set [2] was in the range of 3 to 5. Further, the Papp in data set [3] was in the range of 1 to 10 ×10⁻⁶ cm/s.

For `COC(=O)/C=C/CC[C@H](NC(=O)c1snnc1C1CC1)C(=O)Nc1cccn(CC(=O)NC23CC(C2)C3)c1=O` [III-172, (S,E)-methyl 7-(1-(2-(bicyclo[1.1.1]pentan-1-ylamino)-2-oxoethyl)-2-oxo-1,2-dihydropyridin-3-ylamino)-6-(4-cyclopropyl-1,2,3-thiadiazole-5-carboxamido)-7-oxohept-2-enoate], in data set [1], the IC50 is 0.025 to 0.25 µM. This compound also gave a logD in data set [2] below 1. In data set [3], this compound gave a Papp below 1 ×10⁻⁶ cm/s.

Values taken from patent US20240317708A1, “INHIBITORS OF TRANSGLUTAMINASES” (ZEDIRA GMBH, priority 2021, published 2024).
